Patent US8513232B2, “Substituted spirocyclic piperidine derivatives as histamine-3 (H3) receptor ligands” (Cephalon, Inc., priority 2008, dated 2013)
Counter-ions that a name gives are not always drawn. Like-named read-outs stand apart in the source and are kept apart here.

What was measured:
human H3 receptor = target: T1, human H3 receptor (Homo sapiens, UniProt Q9Y5N1); assay: Human H3 radioligand binding ([3H]-N-alpha-methylhistamine, SPA)
T1 construct: expressed in transfected cells
Protocol: (§1) Methods: CHO cells stably expressing the human H3 receptor (GenBank: NM_007232) were harvested and cell pellets were frozen (−80° C.). Cell pellets were resuspended in 5 mM Tris-HCl, pH 7.5 with […] and a cocktail of protease inhibitors (Complete Protease Inhibitior Tablets, Roche Diagnostics). Cells were disrupted using a polytron cell homogenizer and the suspension was centrifuged at 1000×g for 10 minutes at 4° C. The pellet was discarded and the supernatant centrifuged at 40,000×g for 30 min at 4° C. This membrane pellet was washed in membrane buffer containing 50 mM Tris-HCl, pH 7.5 with 0.6 mM EDTA, 5 mM MgCl2 and protease inhibitors, recentrifuged as above and the final pellet resuspended in membrane buffer plus 250 mM sucrose and frozen at −80° C.
(§2) Radioligand Binding. Membranes were resuspended in 50 mM Tris HCl (pH 7.4), 5 mM MgCl2, 0.1% BSA. The membrane suspensions (10 μg protein per well) were incubated in a 96 well microtiter plate with [^3H]-N-alpha-methylhistamine (approximately 1 nM final concentration), test compounds at various concentrations (0.01 nM-30 μM) and scintillation proximity beads (Perkin Elmer, FlashBlueGPCR Scintillating Beads) in a final volume of 80 μl for 4 hours at room temperature, protected from light. Non-specific binding was determined in the presence of 10 μM clobenpropit. Radioligand bound to receptor, and therefore in proximity to the scintillation beads, was measured using a MicroBeta scintillation counter.

[1] = target: T2, rat histamine H3 receptor (Rattus norvegicus, UniProt Q9QYN8); assay: Rat H3 radioligand binding ([3H]-N-alpha-methylhistamine, SPA)
T2 construct: encoding the entire 445-amino-acid rat histamine H3 receptor; expressed in transfected cells; membrane preparation
T2 sequence (Q9QYN8 whole entry): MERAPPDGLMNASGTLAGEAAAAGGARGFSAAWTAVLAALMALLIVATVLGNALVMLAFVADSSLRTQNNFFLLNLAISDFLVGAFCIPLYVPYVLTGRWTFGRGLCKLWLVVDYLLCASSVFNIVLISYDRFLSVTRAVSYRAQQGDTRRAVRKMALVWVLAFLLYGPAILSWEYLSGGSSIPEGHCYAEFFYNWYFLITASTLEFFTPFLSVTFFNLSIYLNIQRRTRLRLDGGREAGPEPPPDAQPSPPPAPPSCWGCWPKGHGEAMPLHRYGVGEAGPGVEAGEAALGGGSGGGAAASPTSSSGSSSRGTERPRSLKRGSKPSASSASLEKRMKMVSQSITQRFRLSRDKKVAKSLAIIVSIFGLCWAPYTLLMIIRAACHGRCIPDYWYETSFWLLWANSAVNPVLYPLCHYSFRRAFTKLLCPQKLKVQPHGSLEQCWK
Text: as §1, with “Cell line development and membrane preparation. The rat” for “Methods: CHO cells stably expressing the human”, “cDNA was PCR amplified from reverse-transcribed RNA pooled from rat thalamus, hypothalamus, striatum and prefrontal cortex with a sequence corresponding to by #338-1672 of Genbank file #NM_053506, encoding the entire 445-amino-acid rat histamine H3 receptor. This was engineered into the pIRES-neo3 mammalian expression vector, which was stably transfected into the CHO-A3 cell line (Euroscreen, Belgium), followed by clonal selection by limiting dilution. Cells” for “(GenBank: NM_007232)”
as §2

[2] = Table A, human H3 binding, read-out: Human Ki
[3] = Table A, rat H3 binding, read-out: Rat Ki
[4] = human H3 binding, Table D, read-out: Human H3 Ki
[5] = rat H3 binding, Table D, read-out: Rat H3 Ki

T1 sequence (Q9Y5N1 whole entry): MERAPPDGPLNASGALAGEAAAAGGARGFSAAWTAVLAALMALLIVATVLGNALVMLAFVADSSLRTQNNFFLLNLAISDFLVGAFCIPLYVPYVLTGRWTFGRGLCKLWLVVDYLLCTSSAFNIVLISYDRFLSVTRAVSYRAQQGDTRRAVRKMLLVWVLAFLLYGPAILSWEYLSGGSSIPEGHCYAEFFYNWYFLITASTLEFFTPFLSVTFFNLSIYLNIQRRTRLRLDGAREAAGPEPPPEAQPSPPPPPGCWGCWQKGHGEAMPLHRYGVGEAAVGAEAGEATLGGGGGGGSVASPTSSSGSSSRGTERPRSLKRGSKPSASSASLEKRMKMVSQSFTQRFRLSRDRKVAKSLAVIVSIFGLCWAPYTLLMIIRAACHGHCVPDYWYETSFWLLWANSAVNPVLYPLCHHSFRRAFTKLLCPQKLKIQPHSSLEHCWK

| SMILES | melting point | Ki (human H3 receptor; [2]) | Ki [1, 3] | other results |
| --- | --- | --- | --- | --- |
| Cc1nc(C)c(-c2ccc3c(c2)COC2(CCN(C4CCC4)CC2)O3)s1 (as salt: HCl) [Example 70] | 225 to 227 °C |  |  |  |
| c1ccc(Oc2ccc3c(c2)COC2(CCN(C4CCC4)CC2)O3)cc1 (as salt: HCl) [Example 131] | 240 to 245 °C |  |  |  |
| c1cc2c(cc1OC1CCNCC1)CCC1(CCN(C3CCC3)CC1)O2 (as salt: HCl) [Example 425] | > 320 °C |  |  |  |
| CC(C)Cn1cc(-c2ccc3c(c2)COC2(CCN(C4CCC4)CC2)O3)ccc1=O (as salt: HCl) [Example 562] | 182 to 190 °C |  |  |  |
| CC(C)CN1CC(c2ccc3c(c2)COC2(CCN(C4CCC4)CC2)O3)CCC1=O (stereo not shown) (as salt: HCl) [Example 564] | 98 to 103 °C |  |  |  |
| Fc1cncc(-c2ccc3c(c2)COC2(CCN(C4CCC4)CC2)O3)c1 [Example 4] | 140 to 145 °C | < 200 nM | < 200 nM |  |
| c1cc(-c2ccc3c(c2)COC2(CCN(C4CCC4)CC2)O3)co1 [Example 5] | 150 to 152 °C | < 200 nM | < 200 nM |  |
| c1cn2cc(-c3ccc4c(c3)COC3(CCN(C5CCC5)CC3)O4)ccc2n1 [Example 19] | 64.5 to 66 °C | < 200 nM | < 200 nM |  |
| COc1ccc(-c2ccc3c(c2)COC2(CCN(C4CCC4)CC2)O3)cn1 [Example 22] | 122 to 124 °C | < 200 nM | < 200 nM |  |
| COCCNC(=O)c1ccc(-c2ccc3c(c2)COC2(CCN(C4CCC4)CC2)O3)cc1 [Example 26] | 145 to 147 °C | < 200 nM | < 200 nM |  |
| O=C(c1ccc(-c2ccc3c(c2)COC2(CCN(C4CCC4)CC2)O3)cc1)N1CCCCC1 [Example 27] | 59 to 62 °C | < 200 nM | < 200 nM |  |
| CCOC(=O)c1ccc(-c2ccc3c(c2)COC2(CCN(C4CCC4)CC2)O3)cc1 [Example 28] | 148 to 149 °C | < 200 nM | < 200 nM |  |
| CN(C)C(=O)c1ccc(-c2ccc3c(c2)COC2(CCN(C4CCC4)CC2)O3)cc1 [Example 29] | 187 to 190 °C | < 200 nM | < 200 nM |  |
| CCN(C)C(=O)c1ccc(-c2ccc3c(c2)COC2(CCN(C4CCC4)CC2)O3)cc1 [Example 30] | 140 to 141 °C | < 200 nM | < 200 nM |  |
| Cc1ccc(-c2ccc3c(c2)COC2(CCN(C4CCC4)CC2)O3)cn1 [Example 31] | 137 to 139 °C | < 200 nM | < 200 nM |  |
| CNC(=O)c1ccc(-c2ccc3c(c2)COC2(CCN(C4CCC4)CC2)O3)cc1 [Example 33] | 198 to 199 °C | < 200 nM | < 200 nM |  |
| N#Cc1ccc(-c2ccc3c(c2)COC2(CCN(C4CCC4)CC2)O3)cn1 [Example 34] | 159.8 to 160.7 °C | < 200 nM | < 200 nM |  |
| CC(C)NS(=O)(=O)c1ccc(-c2ccc3c(c2)COC2(CCN(C4CCC4)CC2)O3)cc1 [Example 35] | 85 to 90 °C | < 200 nM | < 200 nM |  |
| CNC(=O)c1ccc(-c2ccc3c(c2)COC2(CCN(C4CCC4)CC2)O3)cc1F [Example 36] | 147.8 to 149 °C | < 200 nM | < 200 nM |  |
| O=S(=O)(c1ccc(-c2ccc3c(c2)COC2(CCN(C4CCC4)CC2)O3)cc1)N1CCCCC1 [Example 37] | 85 to 90 °C | < 200 nM | < 200 nM |  |
| c1ccc(-c2ccc3c(c2)COC2(CCN(C4CCC4)CC2)O3)cc1 [Example 39] | 127.8 to 128.6 °C | < 200 nM | < 200 nM |  |
| CN(C)C(=O)c1ccc(-c2ccc3c(c2)COC2(CCN(C4CCC4)CC2)O3)cc1F [Example 40] | 172.9 to 173.5 °C | < 200 nM | < 200 nM |  |
| O=C(c1ccc(-c2ccc3c(c2)COC2(CCN(C4CCC4)CC2)O3)cc1F)N1CCCC1 [Example 41] | 171 to 172.5 °C | < 200 nM | < 200 nM |  |
| CN(C)c1ncc(-c2ccc3c(c2)COC2(CCN(C4CCC4)CC2)O3)cn1 [Example 42] | 204.8 to 205.8 °C | < 200 nM | < 200 nM |  |
| O=C(Nc1nccs1)c1ccc(-c2ccc3c(c2)COC2(CCN(C4CCC4)CC2)O3)cc1 [Example 43] | 242 to 243 °C | < 200 nM | < 200 nM |  |

| SMILES | melting point | Ki (human H3 receptor; [2]) | Ki [1, 3] | other results |
| --- | --- | --- | --- | --- |
| OCc1ccc(-c2ccc3c(c2)COC2(CCN(C4CCC4)CC2)O3)cc1 [Example 44] | 131 to 134 °C | < 200 nM | < 200 nM |  |
| c1ncc(-c2ccc3c(c2)COC2(CCN(C4CCC4)CC2)O3)cn1 [Example 45] | 153 to 155 °C | < 200 nM | < 200 nM |  |
| CC(=O)Nc1ccc(-c2ccc3c(c2)COC2(CCN(C4CCC4)CC2)O3)cn1 [Example 46] | 186 to 187 °C | < 200 nM | < 200 nM |  |
| Fc1ncccc1-c1ccc2c(c1)COC1(CCN(C3CCC3)CC1)O2 [Example 47] | 95 to 100 °C | < 200 nM | < 200 nM |  |
| NS(=O)(=O)c1ccc(-c2ccc3c(c2)COC2(CCN(C4CCC4)CC2)O3)cc1 [Example 48] | 195 to 200 °C | < 200 nM | < 200 nM |  |
| COc1ccc(CCc2ccc3c(c2)COC2(CCN(C4CCC4)CC2)O3)cn1 [Example 522] |  |  |  | Ki (human H3 receptor; read-out: Human H3 Ki): < 200 nM; Ki ([1]; read-out: Rat H3 kI): < 200 nM |
| CCNC(=O)C1CC=C(c2ccc3c(c2)COC2(CCN(C4CCC4)CC2)O3)CC1 (stereo not shown) [Example 523] |  |  |  | Ki (human H3 receptor; read-out: Human H3 Ki): < 200 nM; Ki ([1]; read-out: Rat H3 kI): < 200 nM |
| CCNC(=O)C1CCC(c2ccc3c(c2)COC2(CCN(C4CCC4)CC2)O3)CC1 (stereo not shown) [Example 524] |  |  |  | Ki (human H3 receptor; read-out: Human H3 Ki): < 200 nM; Ki ([1]; read-out: Rat H3 kI): < 200 nM |
| COC1(c2ccc3c(c2)COC2(CCN(C4CCC4)CC2)O3)CC(C(=O)N2CCCC2)C1 (stereo not shown) [Example 540] |  |  |  | Ki (human H3 receptor; read-out: Human H3 Ki): < 200 nM; Ki ([1]; read-out: Rat H3 kI): < 200 nM |
| Cc1cc(-c2ccc3c(c2)COC2(CCN(C4CCC4)CC2)O3)cnc1OCc1ccccc1 [Example 549] |  |  |  | Ki (human H3 receptor; read-out: Human H3 Ki): 200 to 1000 nM; Ki ([1]; read-out: Rat H3 kI): > 1000 nM |
| Cc1c(-c2ccc(=O)n(C)c2)ccc2c1COC1(CCN(C3CCC3)CC1)O2 [Example 557] |  |  |  | Ki (human H3 receptor; read-out: Human H3 Ki): < 200 nM; Ki ([1]; read-out: Rat H3 kI): < 200 nM |
| CC(C)Cn1cc(-c2ccc3c(c2)COC2(CCN(C4CCC4)CC2)O3)ccc1=O [Example 562] |  |  |  | Ki (human H3 receptor; read-out: Human H3 Ki): < 200 nM; Ki ([1]; read-out: Rat H3 kI): < 200 nM |
| CC(C)CN1CC(c2ccc3c(c2)COC2(CCN(C4CCC4)CC2)O3)CCC1=O (stereo not shown) [Example 564] |  |  |  | Ki (human H3 receptor; read-out: Human H3 Ki): < 200 nM; Ki ([1]; read-out: Rat H3 kI): < 200 nM |
| COC1(c2ccc3c(c2)COC2(CCN(C4CCC4)CC2)O3)CCC(C(F)(F)F)CC1 (stereo not shown) [Example 568] |  |  |  | Ki (human H3 receptor; read-out: Human H3 Ki): < 200 nM; Ki ([1]; read-out: Rat H3 kI): < 200 nM |
| O=C(O)CCc1ccc2c(c1)COC1(CCN(C3CCC3)CC1)O2 [Example 637] | 235 to 237 °C |  |  | Ki (human H3 receptor; [4]): 200 to 1000 nM |
| c1ncc(Cc2ccc3c(c2)COC2(CCN(C4CCC4)CC2)O3)s1 [Example 690] |  |  |  | Ki (human H3 receptor; [4]): < 200 nM; Ki [1, 5]: < 200 nM |
| c1csc(Cc2ccc3c(c2)COC2(CCN(C4CCC4)CC2)O3)n1 [Example 696] |  |  |  | Ki (human H3 receptor; [4]): < 200 nM; Ki [1, 5]: < 200 nM |
| c1nc(Cc2ccc3c(c2)COC2(CCN(C4CCC4)CC2)O3)cs1 [Example 701] |  |  |  | Ki (human H3 receptor; [4]): < 200 nM; Ki [1, 5]: < 200 nM |
| CC(C)(C)OC(=O)n1cccc1-c1ccc2c(c1)COC1(CCN(C3CCC3)CC1)O2 [Example 706] |  |  |  | Ki (human H3 receptor; [4]): < 200 nM; Ki [1, 5]: < 200 nM |
| O=c1ccc(-c2ccc3c(c2)COC2(CCN(C4CC(CO)C4)CC2)O3)c[nH]1 (stereo not shown) [Example 721] | 228 to 230 °C |  |  | Ki (human H3 receptor; [4]): > 1000 nM |
| COC(c1ccncc1)c1ccc2c(c1)COC1(CCN(C3CCC3)CC1)O2 (stereo not shown) [Example 724] |  |  |  | Ki (human H3 receptor; [4]): < 200 nM; Ki [1, 5]: < 200 nM |
| O=C(c1ccncc1)N1CCN(c2ccc3c(c2)COC2(CCN(C4CCC4)CC2)O3)C(=O)C1 [Example 741] |  |  |  | Ki (human H3 receptor; [4]): < 200 nM; Ki [1, 5]: < 200 nM |
| COCc1cc(=O)n(C)cc1-c1ccc2c(c1)COC1(CCN(C3CCC3)CC1)O2 [Example 790] |  |  |  | Ki (human H3 receptor; [4]): < 200 nM; Ki [1, 5]: < 200 nM |
| CCS(=O)(=O)c1cc(-c2ccc3c(c2)COC2(CCN(C4CCC4)CC2)O3)c[nH]c1=O [Example 807] |  |  |  | Ki (human H3 receptor; [4]): < 200 nM; Ki [1, 5]: < 200 nM |
